Experimental findings from US20160221965A1, “DISUBSTITUTED TRIFLUOROMETHYL PYRIMIDINONES AND THEIR USE” (BAYER PHARMA AKTIENGESELLSCHAFT, priority 2013, published 2016) are described below.

For one assay, the target named is T1, human CCR2 (Homo sapiens, UniProt P41597).
T1 construct: host or cells: Chem-1 cell line
T1 sequence (P41597 1-360 isoform P41597-2): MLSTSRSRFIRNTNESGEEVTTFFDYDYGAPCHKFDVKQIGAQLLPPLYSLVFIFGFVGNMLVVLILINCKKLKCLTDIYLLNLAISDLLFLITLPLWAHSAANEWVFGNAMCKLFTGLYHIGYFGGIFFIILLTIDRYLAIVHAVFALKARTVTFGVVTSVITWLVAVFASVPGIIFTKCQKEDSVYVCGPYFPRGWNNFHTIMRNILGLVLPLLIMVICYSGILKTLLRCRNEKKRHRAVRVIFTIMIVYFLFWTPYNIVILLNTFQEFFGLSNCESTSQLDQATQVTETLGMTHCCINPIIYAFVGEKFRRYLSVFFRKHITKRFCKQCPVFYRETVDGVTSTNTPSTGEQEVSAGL
Description: Functional Ca2+ release test (B-1). Format: cell-based. To be noted: Chem-1 cell line transfected with human CCR2, inhibition of MCP-1 effect, MCP-1 at EC50 (about 5 nM), Fluo-4. The method, then:
The antagonistic action of test substances on CCR2 was determined in a functional Ca^2+ release test. Binding of CCL2/MCP-1 to CCR2 leads to a change in the conformation of the receptor resulting in Gi/Gq protein activation and intracellular signal cascade. This involves, inter alia, an intracellular Ca^2+ release. The test cell used was a Chem-1 cell line transfected with human CCR2 (ChemiSCREEN™ CCR2B Calcium-Optimized FLIPR Cell Line, Merck Millipore).
(§1) The test substances were dissolved in dimethyl sulphoxide (DMSO) at a concentration of 10 mM and serially diluted with DMSO in steps of 1:3.16 for a 10-point dose/activity analysis. According to the desired test concentrations, the substances were pre-diluted in Tyrode with 2 mM CaCl2 and 0.05% BSA.
The cells, cultivated in DMEM high glucose [supplemented with 10% FCS, 1 mM pyruvate, 15 mM HEPES, 500 μg/ml geniticin and non-essential amino acids (NEAA)], were sown at 5000 cells/25 μl in 384 well, μCLEAR/black cell culture plates from Greiner (#781092) and incubated at 37° C. for 24 h. The sowing medium consisted of DMEM high glucose [supplemented with 5% FCS, 1 mM pyruvate, 15 mM HEPES, 50 U/ml penicillin, 50 μg/ml streptomycin and non-essential amino acids (NEAA)]. The medium was then removed and the cells were charged for 60 min at 37° C. with Fluo-4 dye [25 μl Tyrode with 3 μM Fluo-4 AM (1 mM DMSO stock solution), 0.4 mg/ml Brilliant Black, 2.5 mM probenicid, 0.03% Pluronic F-127]. The cells were pre-incubated for 10 min with 10 μl of the test substances diluted in buffer, and 20 μl of agonist solution (MCP-1 in Tyrode with 0.05% BSA) were then added. MCP-1 was employed at the concentration which corresponds to the EC50 which had been determined in a preliminary test (usually about 5 nM). Ca^2+ release was monitored over a period of 120 s in 1 s increments in a proprietary fluorescence imaging reader. The molar concentration of the test substance which caused 50% inhibition of the MCP-1 effect (IC50) was determined using a 4-parameter logistic function (Hill function).

Another assay concerns the target T2, murine CCR2 (Mus musculus, UniProt P51683).
T2 construct: host or cells: U2OS β-arrestin cell line
Put plainly: Functional β-arrestin recruiting test with human MCP-1 (B-2a). To be noted: U2OS β-arrestin cell line transfected with murine CCR2; agonist human MCP-1 at EC50 (about 3 nM). In kind it is cell-based. How it is done:
The antagonistic action of test substances on CCR2 was determined in a β-arrestin test. The PathHunter β-arrestin GPCR test system (DiscoveRx Corporation, Ltd.) is a cell-based functional method for detecting binding of β-arrestin to an activated receptor. The molecular basis is a β-galactosidase complementation measured by the enzymatic conversion of a chemiluminescent substrate. The test cell used was a U2OS β-arrestin cell line transfected with murine CCR2 (93-0543C3, DiscoveRx Corporation, Ltd.).
as §1
The cells, cultivated in MEM Eagle (supplemented with 10% FCS, 50 U/ml of penicillin, 50 μg/ml of streptomycin, 250 μg/ml of hygromycin and 500 μg/ml of geniticin), were sown at 2000 cells/25 μl in 384 well, μCLEAR/black cell culture plates from Greiner (#781092) and incubated at 37° C. for 24 h. The sowing medium consisted of Opti-MEM (supplemented with 1% FCS, 50 U/ml of penicillin and 50 μg/ml of streptomycin). The cells were pre-incubated for 10 min with 10 μl of the test substances diluted in buffer, and 10 μl of agonist solution [human MCP-1 (PeproTech, #300-04) in Tyrode with 0.05% BSA] were then added. The human MCP-1 was employed at the concentration which corresponds to the EC50 which had been determined in a preliminary test (usually about 3 nM). After 90 min of incubation at 37° C., the solution was removed, and recruitment of β-arrestin to CCR2 was detected with the aid of the PathHunter detection reagent (93-001, DiscoveRx Corporation, Ltd.) according to the instructions of the manufacturer. Luminescence was measured after an incubation time of 60 min using a proprietary luminescence imaging measuring instrument. The molar concentration of the test substance which caused 50% inhibition of the MCP-1 effect (IC50) was determined using a 4-parameter logistic function (Hill function).
In general terms: Arrestin recruitment assays detect the binding of arrestin to an activated receptor.

The IC50 is the concentration that gives 50% inhibition.

Each structure is given as a SMILES string.

T2 sequence (P51683 whole entry): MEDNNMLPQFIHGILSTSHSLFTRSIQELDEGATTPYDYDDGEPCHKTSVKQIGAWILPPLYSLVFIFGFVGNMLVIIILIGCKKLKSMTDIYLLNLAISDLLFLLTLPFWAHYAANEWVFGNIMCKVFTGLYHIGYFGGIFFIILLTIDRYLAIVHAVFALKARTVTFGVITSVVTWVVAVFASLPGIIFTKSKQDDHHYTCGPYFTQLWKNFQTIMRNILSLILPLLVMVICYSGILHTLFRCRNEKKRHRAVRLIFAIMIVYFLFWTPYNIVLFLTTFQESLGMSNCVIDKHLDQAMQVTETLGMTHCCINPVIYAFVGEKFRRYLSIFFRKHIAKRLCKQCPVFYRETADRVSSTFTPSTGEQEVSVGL

With `O=c1[nH]c(C2CC2)nc(C(F)(F)F)c1Cc1ccc(Cl)c(C(F)(F)F)c1` [Example 27, 5-[4-chloro-3-(trifluoromethyl)benzyl]-2-cyclopropyl-6-(trifluoromethyl)pyrimidin-4(3H)-one], the IC50 against human CCR2 amounted to 63 nM; on murine CCR2, 360 nM.
As to `CCc1nc(C(F)(F)F)c(Cc2ccc(F)c(Cl)c2)c(=O)[nH]1` [Example 28, 5-(3-chloro-4-fluorobenzyl)-2-ethyl-6-(trifluoromethyl)pyrimidin-4(3H)-one], the results for the IC50 on human CCR2 and at murine CCR2 were 44 nM and 290 nM, respectively.
The matching figures for `Cc1ccc(Cc2c(C(F)(F)F)nc(C3CC3)[nH]c2=O)cc1Cl` [Example 29, 5-(3-chloro-4-methylbenzyl)-2-cyclopropyl-6-(trifluoromethyl)pyrimidin-4(3H)-one]: 91 nM and 800 nM.
As to `O=c1[nH]c(C2CC2)nc(C(F)(F)F)c1Cc1ccc(Cl)c(Cl)c1` [Example 30, 2-cyclopropyl-5-(3,4-dichlorobenzyl)-6-(trifluoromethyl)pyrimidin-4(3H)-one], the values for the IC50 against human CCR2 and on murine CCR2 were 100 nM and 550 nM, respectively.
For `CCc1nc(C(F)(F)F)c(Cc2ccc(Cl)c(Cl)c2)c(=O)[nH]1` [Example 31, 5-(3,4-dichlorobenzyl)-2-ethyl-6-(trifluoromethyl)pyrimidin-4(3H)-one] the same measures were 120 nM and 220 nM.
`CCc1nc(C(F)(F)F)c(Cc2ccc(Cl)c(F)c2)c(=O)[nH]1` [Example 32, 5-(4-chloro-3-fluorobenzyl)-2-ethyl-6-(trifluoromethyl)pyrimidin-4(3H)-one]: the IC50 stood at 220 nM against human CCR2 and 540 nM on murine CCR2.
As for `CCc1nc(C(F)(F)F)c(Oc2ccc(Cl)c(Cl)c2)c(=O)[nH]1` [Example 33, 5-(3,4-dichlorophenoxy)-2-ethyl-6-(trifluoromethyl)pyrimidin-4(3H)-one], the IC50 was determined as 15 nM against human CCR2 and 74 nM at murine CCR2.
As for `O=c1[nH]c(C2CC2)nc(C(F)(F)F)c1Cc1ccc(F)c(Cl)c1` [Example 34, 5-(3-chloro-4-fluorobenzyl)-2-cyclopropyl-6-(trifluoromethyl)pyrimidin-4(3H)-one], the results for the IC50 on human CCR2 and at murine CCR2 were 150 nM and 520 nM, respectively.
With `NC(=O)Cc1nc(C(F)(F)F)c(Cc2ccc(C(F)(F)F)c(Cl)c2)c(=O)[nH]1` [Example 35, 2-{5-[3-Chloro-4-(trifluoromethyl)benzyl]-6-oxo-4-(trifluoromethyl)-1,6-dihydropyrimidin-2-yl}acetamide], the IC50 at human CCR2 is 150 nM; on murine CCR2 it was 3700 nM.
For the molecule `NC(=O)Cc1nc(C(F)(F)F)c(Oc2ccc(F)c(Cl)c2)c(=O)[nH]1` [Example 36], the half-inhibitory concentration (IC50) was 110 nM against human CCR2 and 1600 nM at murine CCR2.
Regarding `NC(=O)Cc1nc(C(F)(F)F)c(Oc2ccc(F)c(F)c2)c(=O)[nH]1` [Example 37], the IC50 against human CCR2 was 480 nM; at murine CCR2, 3800 nM.
Regarding `NC(=O)Cc1nc(C(F)(F)F)c(Oc2cccc(Cl)c2)c(=O)[nH]1` [Example 38], the IC50 against human CCR2 came to 320 nM; on murine CCR2, 3300 nM.
For the molecule `NC(=O)Cc1nc(C(F)(F)F)c(Oc2ccc(Cl)c(F)c2)c(=O)[nH]1` [Example 39], the IC50 turned out to be 160 nM at human CCR2 and 1800 nM at murine CCR2.
With `NC(=O)Cc1nc(C(F)(F)F)c(Cc2ccc(Cl)c(F)c2)c(=O)[nH]1` [Example 40], the concentration for half-maximal inhibition (IC50) at human CCR2 was 150 nM; on murine CCR2 it was 970 nM.
For the molecule `NC(=O)Cc1nc(C(F)(F)F)c(Cc2cccc(C(F)(F)F)c2)c(=O)[nH]1` [Example 41], the IC50 came out at 270 nM on human CCR2 and 2000 nM on murine CCR2.
As for `NC(=O)Cc1nc(C(F)(F)F)c(Cc2cc(F)cc(C(F)(F)F)c2)c(=O)[nH]1` [Example 42], the IC50 at human CCR2 was 400 nM; at murine CCR2, 2800 nM.
For the molecule `NC(=O)Cc1nc(C(F)(F)F)c(Cc2cccc(Cl)c2)c(=O)[nH]1` [Example 43], the IC50 at human CCR2 turned out to be 270 nM; on murine CCR2 it was 880 nM.
Turning to `NC(=O)Cc1nc(C(F)(F)F)c(Cc2ccc(F)c(Cl)c2)c(=O)[nH]1` [Example 44], the IC50 amounted to 90 nM against human CCR2 and 420 nM at murine CCR2.
The matching figures for `NC(=O)Cc1nc(C(F)(F)F)c(Oc2ccc(Cl)c(C(F)(F)F)c2)c(=O)[nH]1` [Example 45]: 8 nM and 130 nM.
Consider `NC(=O)Cc1nc(C(F)(F)F)c(Oc2ccc(Cl)c(Cl)c2)c(=O)[nH]1` [Example 46], for which the IC50 worked out at 20 nM at human CCR2 and 440 nM at murine CCR2.
For the molecule `Cc1ccc(Cc2c(C(F)(F)F)nc(CC(N)=O)[nH]c2=O)cc1Cl` [Example 47], the results for the half-maximal inhibitory concentration (IC50) against human CCR2 and at murine CCR2 were 49 nM and 830 nM, respectively.
For the molecule `NC(=O)Cc1nc(C(F)(F)F)c(Cc2ccc(Cl)c(C(F)(F)F)c2)c(=O)[nH]1` [Example 48], the figures for the IC50 at human CCR2 and at murine CCR2 were 31 nM and 300 nM, respectively.
On to `NC(=O)Cc1nc(C(F)(F)F)c(Oc2ccc(F)c(C(F)(F)F)c2)c(=O)[nH]1` [Example 49], for which the IC50 against human CCR2 stood at 91 nM; on murine CCR2, 380 nM.
Regarding `NC(=O)Cc1nc(C(F)(F)F)c(Cc2ccc(Cl)c(Cl)c2)c(=O)[nH]1` [Example 50], the IC50 at human CCR2 came to 65 nM; on murine CCR2 it was 460 nM.
Regarding `O=c1[nH]c(CO)nc(C(F)(F)F)c1Cc1ccc(Cl)c(Cl)c1` [Example 51, 5-(3,4-Dichlorobenzyl)-2-(hydroxymethyl)-6-(trifluoromethyl)pyrimidin-4(3H)-one], the IC50 against human CCR2 is 14 nM; at murine CCR2, 230 nM.
For `O=c1[nH]c(CO)nc(C(F)(F)F)c1Oc1ccc(F)c(Cl)c1` [Example 52] the same measures were 7.8 nM and 140 nM.
For `O=c1[nH]c(CO)nc(C(F)(F)F)c1Oc1ccc(F)c(F)c1` [Example 53] the same measures were 70 nM and 620 nM.
For the molecule `O=c1[nH]c(CO)nc(C(F)(F)F)c1Oc1cccc(Cl)c1` [Example 54], the results for the 50% inhibitory concentration (IC50) at human CCR2 and at murine CCR2 were 10 nM and 140 nM, respectively.
For the molecule `O=c1[nH]c(CO)nc(C(F)(F)F)c1Oc1ccc(Cl)c(F)c1` [Example 55], the figures for the IC50 against human CCR2 and at murine CCR2 were 6.2 nM and 120 nM, respectively.
For `NC(=O)Nc1nc(C(F)(F)F)c(Cc2ccc(Cl)c(Cl)c2)c(=O)[nH]1` [Example 56, 1-[5-(3,4-Dichlorobenzyl)-6-oxo-4-(trifluoromethyl)-1,6-dihydropyrimidin-2-yl]urea], the IC50 at human CCR2 is 17 nM; at murine CCR2, 330 nM.
For the molecule `CN(C)c1nc(C(F)(F)F)c(Oc2ccc(Cl)c(Cl)c2)c(=O)[nH]1` [Example 67], the IC50 stood at 55 nM against human CCR2 and 1000 nM at murine CCR2.
